Drawing on patent publication US9295671B2, “Benzenesulfonamide derivatives of quinoxaline, pharmaceutical compositions thereof, and their use in methods for treating cancer” (NEUPHARMA, INC., priority 2011, dated 2016), this text covers inhibition and IC50 for 15 compounds.

Experiment [1] addresses T1, BRAF (Homo sapiens, UniProt P15056).
T1 construct: purchased Invitrogen
The experiment can be described thus: Z′-LYTE kinase assay, BRAF (Invitrogen). It counts as biochemical. Conditions: Z′-LYTE method. On the procedure:
(§1) Inhibitory activities of compounds against BRAF or BRAF V600E were measured by Invitrogen using Z′-LYTE® Method as briefly described in the following.
(§2) 4× Test compounds are dissolved in 1% DMSO. […] ATP solutions are diluted to a 4×ATP working concentration in Kinase Buffer (50 mM HEPES pH 7.5, 0.01% BRIJ-35, 10 mM MgCl2, 1 mM EGTA).
(§3) Reaction starts by 30-second shaking of mixture consisting of 2.5 μL4× test compound, […] and 2.5 μL 4×ATP Solution on Bar-coded Corning, low volume NBS, black 384-well plate (Corning Cat. #3676). Then the mixture is incubated for 60-minute at room temperature for the kinase reaction, followed by addition of 5 μL of a 1:1024 dilution of development reagent A and 30-second plate shake. The mixture is then incubated for another 60-minute at room temperature for development reaction. Finally fluorescence is read by plate reader.

The target of experiment [2] is T2, BRAF V600E (Homo sapiens, UniProt P15056, V600E).
T2 construct: purchased Invitrogen
T2 sequence (P15056 whole entry V600E): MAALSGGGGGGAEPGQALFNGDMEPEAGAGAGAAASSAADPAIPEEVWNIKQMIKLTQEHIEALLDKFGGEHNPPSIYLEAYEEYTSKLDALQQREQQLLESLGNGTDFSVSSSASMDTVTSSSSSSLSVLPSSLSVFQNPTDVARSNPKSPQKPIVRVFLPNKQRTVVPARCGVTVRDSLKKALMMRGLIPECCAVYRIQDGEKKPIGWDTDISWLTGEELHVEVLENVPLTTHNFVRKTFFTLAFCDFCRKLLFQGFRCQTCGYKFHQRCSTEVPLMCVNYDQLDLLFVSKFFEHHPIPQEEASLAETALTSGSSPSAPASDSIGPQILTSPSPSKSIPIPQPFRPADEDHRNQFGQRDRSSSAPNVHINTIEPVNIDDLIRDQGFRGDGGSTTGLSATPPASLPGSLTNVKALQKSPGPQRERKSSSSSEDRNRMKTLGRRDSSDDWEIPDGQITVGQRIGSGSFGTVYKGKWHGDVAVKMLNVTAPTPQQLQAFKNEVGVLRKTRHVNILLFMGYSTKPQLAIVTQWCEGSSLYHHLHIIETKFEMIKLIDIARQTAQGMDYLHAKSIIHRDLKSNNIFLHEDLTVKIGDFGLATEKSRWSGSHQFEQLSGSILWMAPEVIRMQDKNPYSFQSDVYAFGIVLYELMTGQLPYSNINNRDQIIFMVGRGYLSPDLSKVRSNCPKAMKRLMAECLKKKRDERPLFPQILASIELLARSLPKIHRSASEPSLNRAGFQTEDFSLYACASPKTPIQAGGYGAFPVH
In words: Z′-LYTE kinase assay, BRAF V600E (Invitrogen). It counts as biochemical. Conditions: Z′-LYTE method. The method, then:
as §1, §2, §3

A further experiment has as its system A549 cells. The experiment can be described thus: Inhibition of cancer cell growth, MTT assay, A549. It counts as cell-based. The settings on record: Homo sapiens, 72 h. On the procedure: (§4) Inhibition of cell growth by compounds was measured using MTT assay (Mosmann, T., Journal of Immunological Methods, 1983, 65, 55-63). Tumor cell lines were purchased from ATCC (American Type Culture Collection, Manassas, Va.). All cell lines were maintained in RPMI 1640 (Hyclone) supplemented with 10% fetal bovine serum (FBS, Hyclone), glutamine (2 mM, Hyclone), and antibiotics (penicillin 100 U/mL and streptomycin 50 μg/mL) at 37° C. in a humidified atmosphere of 5% CO2 in air. Taxol (as a positive control, Sigma) and compounds were dissolved in DMSO (Sigma), and the final concentration of DMSO in the medium was 1%. Tumor cells were plated in 96-well plates at densities of about 4000 cells/well of a 96-well plate and allowed to adhere/grow for 24 h. They were then treated with various concentrations of drug for 72 h. 3-(4,5-Dimethylthiazol-2-yl)-2,5-diphenyltetrazolium bromide (MTT, Sigma) was used to determine the number of viable cells at the time of compound addition and the number of cells remaining after 72 h compound exposure. The number of cells remaining after 72 h was compared to the number of viable cells at the time of compound addition by measuring the absorbance at 570 nm, allowing for the calculation of growth inhibition.
(§5) All concentrations of compounds were tested in triplicate and controls were averaged over 4 wells. IC50 was calculated by plotting the concentration of compound vs the percentage of inhibition in treated wells using GraphPad Prism 5.
(§6) The scale utilized in Table 4 is as follows: +++ less than 500 nM; ++ between 500 nM and 1 μM; and + greater than 1 μM.

The next experiment concerns A375 cells. In words: Inhibition of cancer cell growth, MTT assay, A375. The settings on record: Homo sapiens, A-375, 72 h (Table 4). It counts as cell-based. The method, then:
as §4, §5, §6
(Tetrazolium assays rely on reduction of a dye to a coloured formazan, in cell work by metabolically active cells.)

Experiment [3] has as its target T1, BRAF. The experiment can be described thus: LanthaScreen kinase assay, BRAF. The settings on record: ATP 1 μM. The experiment is classed as biochemical. On the procedure: (§7) The inhibitory activities of compounds against BRAF or BRAF V600E protein were measured using Invitrogne's LanthaScreen™ kinase assay which is based on fluorescein-labeled MAP2K1 as a substrate. The assay procedure is described as follows.
(§8) The scale utilized in Table 3 is as follows: ++++ less than 50 nM; +++ between 50 and 100 nM; ++ between 100 nM and 1 μM; and + greater than 1 μM.

Experiment [4] concerns the target T2, BRAF V600E. The experiment can be described thus: LanthaScreen kinase assay, BRAF V600E. It counts as biochemical. Conditions: ATP 10 μM. The method, then: as §7, §8
A general note: Time-resolved FRET reads energy transfer from a long-lived donor to a nearby acceptor.

T1 sequence (P15056 whole entry): as the sequence (P15056 whole entry V600E) above, with E600V counted along it

As for `CCCS(=O)(=O)Nc1ccc(F)c(C(=O)c2ccc3nccnc3c2)c1F` [Compound C01, N-(2,4-difluoro-3-(quinoxaline-6-carbonyl)phenyl)propane-1-sulfonamide], the inhibition (as a rule, the relative decrease from the control value, in per cent) at 1 µM against BRAF [1] was 70 to 89%; on BRAF V600E [2], > 89%. Further, the concentration for half-maximal inhibition (IC50) in the experiment with A549 cells and in the experiment on A375 cells was < 0.5 µM throughout.

As for `CCCS(=O)(=O)Nc1ccc(F)c(C(=O)c2ccc3ncc(-c4ccc(Cl)cc4)nc3c2)c1F` [Compound C02, N-(3-(3-(4-chlorophenyl)quinoxaline-6-carbonyl)-2,4-difluorophenyl)propane-1-sulfonamide], the figures for the inhibition at 1 µM at BRAF [1] and against BRAF V600E [2] were 70 to 89% and > 89%, respectively. Further, the concentration for half-maximal inhibition (IC50) in the experiment with A549 cells and in the experiment on A375 cells was 0.5 to 1 µM in each case.

`CCCS(=O)(=O)Nc1ccc(F)c(C(=O)c2ccc3ncc(OC)nc3c2)c1F` [Compound C03, N-(2,4-difluoro-3-(3-methoxyquinoxaline-6-carbonyl)phenyl)propane-1-sulfonamide]: the inhibition at 1 µM on BRAF [1] is 70 to 89%; at BRAF V600E [2], > 89%. Further, the half-maximal inhibitory concentration (IC50) with A549 cells and with A375 cells was > 1 µM each time.

In the case of `CCCS(=O)(=O)Nc1ccc(F)c(C(=O)c2ccc3ncc(C#N)nc3c2)c1F` [Compound C05, N-(3-(3-cyanoquinoxaline-6-carbonyl)-2,4-difluorophenyl)propane-1-sulfonamide], the inhibition at 1 µM is 70 to 89% against BRAF [1] and > 89% against BRAF V600E [2]. The values for the 50% inhibitory concentration (IC50) in the experiment on A549 cells and with A375 cells were < 0.5 µM and 0.5 to 1 µM, respectively.

As to `CCCS(=O)(=O)Nc1cc(F)c(F)c(C(=O)c2ccc3nccnc3c2)c1` [Compound C07, N-(3,4-difluoro-5-(quinoxaline-6-carbonyl)phenyl)propane-1-sulfonamide], the inhibition at 1 µM was < 70% against BRAF [1] and 70 to 89% against BRAF V600E [2]. For the same compound, the half-inhibitory concentration (IC50) (usually the concentration at which inhibition is half-maximal) is > 1 µM with A549 cells and 0.5 to 1 µM with A375 cells.

Regarding `CCCS(=O)(=O)Nc1cc(F)c(SC)c(C(=O)c2ccc3nccnc3c2)c1F` [Compound C08, N-(2,5-difluoro-4-(methylthio)-3-(quinoxaline-6-carbonyl)phenyl)propane-1-sulfonamide], the inhibition at 1 µM against BRAF [1] and at BRAF V600E [2] was < 70% each time. Besides, the IC50 in the experiment on A549 cells and in the experiment with A375 cells was > 1 µM in each case.

Turning to `CCCS(=O)(=O)Nc1cc(F)c(F)c(C(=O)c2ccc3ncc(OC)nc3c2)c1F` [Compound C10, N-(2,4,5-trifluoro-3-(3-methoxyquinoxaline-6-carbonyl)phenyl)propane-1-sulfonamide], the inhibition at 1 µM was > 89% against BRAF [1] and 70 to 89% on BRAF V600E [2]. Also, the figures for the IC50 in the experiment on A549 cells and with A375 cells were > 1 µM and < 0.5 µM, respectively.

Turning to `CCCS(=O)(=O)Nc1cc(F)c(F)c(C(=O)c2ccc3ncc(Cl)nc3c2)c1F` [Compound C11, N-(3-(3-chloroquinoxaline-6-carbonyl)-2,4,5-trifluorophenyl)propane-1-sulfonamide], the values for the inhibition at 1 µM against BRAF [1] and at BRAF V600E [2] were 70 to 89% and > 89%, respectively. Besides, the 50% inhibitory concentration (IC50) in the experiment on A549 cells and with A375 cells was > 1 µM in each case.

For `CCCS(=O)(=O)Nc1cc(F)c(F)c(C(=O)c2ccc3ncc(N(C)CCN(C)C)nc3c2)c1F` [Compound C13, N-(3-(3-((2-(dimethylamino)ethyl)(methyl)amino)quinoxaline-6-carbonyl)-2,4,5-trifluorophenyl)propane-1-sulfonamide], the inhibition at 1 µM against BRAF [1] and at BRAF V600E [2] was > 89% each time. Besides, the IC50 in the experiment on A549 cells and with A375 cells was > 1 µM each time.

As for `CCCS(=O)(=O)Nc1cc(F)c(F)c(C(=O)c2ccc3nccnc3c2)c1Cl` [Compound C14, N-(2-chloro-4,5-difluoro-3-(quinoxaline-6-carbonyl)phenyl)propane-1-sulfonamide], the inhibition at 1 µM against BRAF [1] was > 89%; against BRAF V600E [2], 70 to 89%. The concentration for half-maximal inhibition (IC50) was > 1 µM in the experiment with A549 cells and < 0.5 µM in the experiment with A375 cells.

In the case of `CCCS(=O)(=O)Nc1ccc(F)c(C(=O)c2ccc3nccnc3c2)c1` [Compound C15, N-(4-fluoro-3-(quinoxaline-6-carbonyl)phenyl)propane-1-sulfonamide], the inhibition at 1 µM at BRAF V600E [2] was < 70%. Also, the IC50 in the experiment with A549 cells and in the experiment with A375 cells was > 1 µM each time.

Turning to `CCCS(=O)(=O)Nc1cc(F)cc(C(=O)c2ccc3nccnc3c2)c1` [Compound C16, N-(3-fluoro-5-(quinoxaline-6-carbonyl)phenyl)propane-1-sulfonamide], the inhibition at 1 µM on BRAF V600E [2] was < 70%. Besides, the IC50 with A549 cells and in the experiment on A375 cells was > 1 µM each time.

With `CCCS(=O)(=O)Nc1ccc(F)c(C(=O)c2ccc3ncc(N4CCOCC4)nc3c2)c1` [Compound C17, N-(4-fluoro-3-(3-morpholinoquinoxaline-6-carbonyl)phenyl)propane-1-sulfonamide], at BRAF V600E [2], the inhibition at 1 µM was < 70%. In addition, the IC50 in the experiment on A549 cells and in the experiment with A375 cells was > 1 µM throughout.

Regarding `CCCS(=O)(=O)Nc1cc(F)cc(C(=O)c2ccc3ncc(N4CCOCC4)nc3c2)c1` [Compound C18, N-(3-fluoro-5-(3-morpholinoquinoxaline-6-carbonyl)phenyl)propane-1-sulfonamide], the inhibition at 1 µM at BRAF V600E [2] is < 70%. The IC50 against BRAF [3] is 0.05 to 0.1 µM; on BRAF V600E [4], < 0.05 µM; in the experiment with A549 cells it was > 1 µM; in the experiment on A375 cells, > 1 µM.

In turn, `CCCS(=O)(=O)Nc1cc(F)c(F)c(C(=O)c2ccc3ncc(N4CCOCC4)nc3c2)c1` [Compound C37, N-(3,4-difluoro-5-(3-morpholinoquinoxaline-6-carbonyl)phenyl)propane-1-sulfonamide] showed an inhibition at 1 µM against BRAF V600E [2] of 70 to 89%. For the same compound, the IC50 against BRAF [3] is 0.1 to 1 µM; against BRAF V600E [4] it was 0.05 to 0.1 µM; in the experiment on A549 cells it was > 1 µM; in the experiment with A375 cells it was > 1 µM.
